These results are taken from US7902188B2, “Morpholine dopamine agonists” (Pfizer Inc., priority 2002, dated 2011).

This assay concerns the target T1, human dopamine D2long receptor (Homo sapiens, UniProt P14416).
T1 construct: expressed in transfected cells; host or cells: GH4C1 rat pituitary cells
The experiment in a line: Inhibition via dopamine D2 receptors of forskolin-stimulated adenylate cyclase activity (cAMP Flashplate, GH4C1/hD2L cells). Type of assay: cell-based. The conditions noted are these: D2 EC50 value divided by D3 EC50 value; where D2 EC50 was >10000, a figure of 10000 was used. The procedure:
A suitable assay for determining functionally the activity of a compound at D3 and/or […] dopamine receptors is detailed hereinbelow. Compounds are evaluated as agonists or antagonists at the dopamine D2 and D3 receptors by looking at cAMP levels in a GH4C1 and CHO cell-line expressing the human D2 and D3 receptors, respectively.
Inhibition Via Dopamine D2 Receptors of Forskolin Stimulated Adenylate Cyclase Activity Materials Cell Culture Media:
4× assay stock of 20 μM made by carrying out a 1000-fold dilution in PBS buffer, 25 μl of the 20 μM stock is added to a final assay volume of 100 μl, giving a final assay concentration of 5 μM.
• Pramipexole is included as a reference standard. A 10-point, semi-log curve is generated every 4 plates. Compound responses are normalised to the minimum (0 nM pramipexole) and maximum (100 nM Pramipexole) responses generated by the cells. All test compounds may also be tested via a 10-point (semi-log) curve. • Test compounds are dissolved in 100% DMSO to yield a stock concentration of 10 mM, (1000× the final assay concentration required, e.g. 10 mM will give a top concentration of 10000 nM). • Pramipexole is dissolved in 100% DMSO to give a concentration of 10 mM. […]

T1 sequence (P14416 whole entry): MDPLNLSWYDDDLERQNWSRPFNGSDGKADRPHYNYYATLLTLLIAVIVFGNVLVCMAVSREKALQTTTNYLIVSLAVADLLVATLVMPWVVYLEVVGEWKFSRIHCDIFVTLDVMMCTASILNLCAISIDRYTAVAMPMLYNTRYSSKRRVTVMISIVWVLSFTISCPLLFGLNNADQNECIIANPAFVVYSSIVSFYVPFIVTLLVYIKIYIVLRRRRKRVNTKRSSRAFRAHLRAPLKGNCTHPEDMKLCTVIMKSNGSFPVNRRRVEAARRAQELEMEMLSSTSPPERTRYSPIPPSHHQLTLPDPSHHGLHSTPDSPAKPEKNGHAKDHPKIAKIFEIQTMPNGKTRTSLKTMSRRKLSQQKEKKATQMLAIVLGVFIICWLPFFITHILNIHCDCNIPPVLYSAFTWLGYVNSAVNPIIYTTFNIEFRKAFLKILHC

With `CCCN1CCO[C@H](c2cccc(O)c2)C1.Cl` [Example 8, R-(−)-3-(4-Propylmorpholin-2-yl)phenol hydrochloride], the “selectivity for D3 over D2” value is recorded as 1315.8 fold.
